Assay results published in patent US10508118B2, “Pyrimidopyrrole compounds, method for preparing the same, pharmaceutical compositions comprising the same and uses thereof” (Xiamen University, priority 2015, dated 2019).
Where two headings read alike, the source gives them in different places.

Experiments:
Assay type in all cases: cell-based
EML4-ALK (L1196M)-BaF3 = target: T1, EML4-ALK (L1196M)-BaF3 (Homo sapiens, UniProt Q9UM73, L1196M); assay: Growth inhibition of EML4-ALK (L1196M) transformed BaF3 cells (MTS); conditions: 48 hours
T1 construct: expressed in transfected cells; host or cells: Ba/F3 cells; the other entry of the earlier key: EML4 (Q9HC35, Echinoderm microtubule-associated protein-like 4)
Experimental: (§1) If compounds can inhibit the activity of ALK kinase or the activity of ALK signaling pathway, they can inhibit the growth of ALK transformed Ba/F3 cells. […] The broad-spectrum toxicity of compounds can be evaluated by determining the effect of the compounds on the growth of wild type BaF3 cells.
(§2) 1) Medium: DMEM (Dulbecco's modified eagle medium) or RPMI1640 (containing 10% fetal bovine serum, 100 μg/mL ampicillin, 100 μg/mL streptomycin).)
(§3) Reagents: MTS solution (2 mg/mL MTS (3-(4,5-dimethylthiazol-2-yl)-5-(3-carboxymethoxyphenyl)-2-(4-sulfophenyl)-2H-tetrazolium, inner salt); 100 μg/mL PES ([…])).
(§4) 3) Test of compound: Transformed Ba/F3 cells (EML4-ALK-BaF3, EML4-ALK(L1196M)-BaF3, NPM-ALK-BaF3) (2×10^4/well) were distributed into 96-well plates, with volume of cell sap of 90 μL, 10 μL of compounds in gradient concentration (the highest concentration 10 was μM, followed by 1/3 step by step dilution, a total of 8 concentrations were set, the system contained 0.1% DMSO (dimethyl sulfoxide)). The cell plates mixed with compounds were cultured in a cell incubator (37° C.; 5% CO2) for 48 hours, and the added 20 μL of MTS reaction solution, mixed and incubated in cell incubator (37° C.; 5% CO2) for 1-4 hours. The OD value at a wavelength of 490 nm was measured using eliasa (VARIOSKAN FLASH, Thermo). Three parallels were set up for each group, with a final concentration of 0.1% DMSO as negative control, and with medium without cells and compounds as blank control.
(§5) 4) Calculation of IC50 value: the semi inhibitory concentration of the compound acting on the cells was calculated using GradPad Prism 5 software according to the cell inhibitory rate measured.

NPM-ALK-BaF3 = target: T2, NPM-ALK-BaF3 (Homo sapiens, UniProt Q9UM73); assay: Growth inhibition of NPM-ALK transformed BaF3 cells (MTS); conditions: 48 hours, Table 11
T2 construct: expressed in transfected cells; host or cells: Ba/F3 cells; the other entry of the earlier key: NPM1 (P06748, Nucleophosmin)
Experimental: (§6) The activity of compounds against ALK kinase was evaluated by inhibiting the growth of cellular ALK kinase EML4-ALK-BaF3, EML4-ALK (L1196M)-BaF3, NPM-ALK-BaF3, and wild type BaF3 (Proc. Natl. Acad. Sci. USA., 2006, 103, 3153-8.) The growth of cellular ALK kinase EML4-ALK-BaF3, EML4-ALK(L1196M)-BaF3, and NPM-ALK-BaF3 depends on their kinase activity. If compounds can inhibit the activity of ALK kinase or the activity of ALK signaling pathway, they can inhibit the growth of ALK transformed Ba/F3 cells. […] The broad-spectrum toxicity of compounds can be evaluated by determining the effect of the compounds on the growth of wild type BaF3 cells.
as §2, §3
as §4, with “control. The inhibition rate of cell growth was calculated by the following formula: Cell inhibition rate %=1−(OD experimental group−OD blank group)/(OD negative group−OD blank group)*100%” for “control.”
as §5

wild type BaF3 = assay: Growth inhibition of wild type BaF3 cells (broad-spectrum toxicity); conditions: Mus musculus, BaF3, 48 h, MTS
Experimental: as §6, §2, §3
as §4, with “control. The inhibition rate of cell growth was calculated by the following formula: Cell inhibition rate %=1−(OD experimental group−OD blank group)/(OD negative group−OD blank group)*100%” for “control.”
as §5

EML4-ALK-BaF3 = target: T3, EML4-ALK-BaF3 (Homo sapiens, UniProt Q9UM73); assay: Growth inhibition of EML4-ALK transformed BaF3 cells (MTS); conditions: EML4-ALK-BaF3 cells, 48 hours, MTS
T3 construct: expressed in transfected cells; host or cells: Ba/F3 cells; the other entry of the earlier key: EML4 (Q9HC35, Echinoderm microtubule-associated protein-like 4)
Experimental: as §1, §2, §3, §4, §5

[1] = Table 11, read-out: EML4-ALK (L1196M) (IC50 nM)

Row | SMILES | IC50 (EML4-ALK (L1196M)-BaF3; [1]) [nM] | IC50 (NPM-ALK-BaF3) [nM] | IC50 (wild type BaF3; Table 11) [nM] | IC50 (EML4-ALK-BaF3; Table 11) [nM] | IC50 (EML4-ALK (L1196M)-BaF3; Table 12, read-out: L1196M (IC50 nM)) [nM] | IC50 (wild type BaF3; Table 12) [nM] | IC50 (EML4-ALK-BaF3; Table 12) [nM]
1 | COc1cc(N2CCN(C)CC2)ccc1Nc1nc(Nc2ccccc2SC)c2[nH]ccc2n1 [IA-1] | 1800 | 703 | ~2790 | 1370 |  |  | 
2 | CSc1ccccc1Nc1nc(Nc2ccc(N3CCC(O)CC3)cc2)nc2cc[nH]c12 [IA-2] | 761 | 1030 | 1520 | 649 |  |  | 
3 | CSc1ccccc1Nc1nc(Nc2ccc(S(N)(=O)=O)cc2)nc2cc[nH]c12 [IA-3] | 6630 | 12900 | 7710 | 2420 |  |  | 
4 | COc1cc(N2CCN(C)CC2)ccc1Nc1nc(Nc2ccccc2SC(C)C)c2[nH]ccc2n1 [IB-1] | ~2410 | 1450 | ~2800 | ~895 |  |  | 
5 | CC(C)Sc1ccccc1Nc1nc(Nc2ccc(N3CCC(O)CC3)cc2)nc2cc[nH]c12 [IB-2] | 1740 | 1770 | 1920 | 786 |  |  | 
6 | CC(C)Sc1ccccc1Nc1nc(Nc2ccc(S(N)(=O)=O)cc2)nc2cc[nH]c12 [IB-3] | 8700 | 8830 | > 10000 | 4220 |  |  | 
7 | COc1cc(N2CCN(C)CC2)ccc1Nc1nc(Nc2ccccc2S(C)(=O)=O)c2[nH]ccc2n1 [IC-1] | ~7250 | ~4560 | > 10000 | 3930 |  |  | 
8 | COc1cc(N2CCC(N3CCN(C)CC3)CC2)ccc1Nc1nc(Nc2ccccc2S(C)(=O)=O)c2[nH]ccc2n1 [IC-2] | ~6860 | ~4910 | ~8770 | 3680 |  |  | 
9 | CS(=O)(=O)c1ccccc1Nc1nc(Nc2ccc(N3CCC(O)CC3)cc2)nc2cc[nH]c12 [IC-3] | > 10000 | > 10000 | > 10000 | > 10000 |  |  | 
10 | CS(=O)(=O)c1ccccc1Nc1nc(Nc2ccc(S(N)(=O)=O)cc2)nc2cc[nH]c12 [IC-4] | > 10000 | > 10000 | > 10000 | > 10000 |  |  | 
11 | CN1CCN(c2ccc(Nc3nc(Nc4ccccc4S(C)(=O)=O)c4[nH]ccc4n3)cc2)CC1 [IC-5] | ~3350 | 5260 | 4590 | 4080 |  |  | 
12 | COc1cc(N2CCN(C)CC2)ccc1Nc1nc(Nc2ccccc2S(=O)(=O)C(C)C)c2[nH]ccc2n1 [ID-1] | 737 | 796 | ~8390 | 477 |  |  | 
13 | CC(C)S(=O)(=O)c1ccccc1Nc1nc(Nc2ccc(N3CCN(C)CC3)cc2)nc2cc[nH]c12 [ID-2] | 2030 | ~2850 | ~8310 | 1170 |  |  | 
14 | CC(C)S(=O)(=O)c1ccccc1Nc1nc(Nc2ccc(N3CCC(O)CC3)cc2)nc2cc[nH]c12 [ID-4] | 6150 | ~8930 | > 10000 | 2860 |  |  | 
15 | CC(C)S(=O)(=O)c1ccccc1Nc1nc(Nc2ccc(S(N)(=O)=O)cc2)nc2cc[nH]c12 [ID-5] | > 10000 | > 10000 | > 10000 | > 10000 |  |  | 
16 | Cc1cc(Nc2nc(Nc3ccccc3S(=O)(=O)C(C)C)c3[nH]ccc3n2)c(OC(C)C)cc1C1CCN(C)CC1 [ID-6] | ~2650 | 1020 | ~2840 | 1510 |  |  | 
17 | COc1cc(C2CCN(C)CC2)c(C)cc1Nc1nc(Nc2ccccc2S(=O)(=O)C(C)C)c2[nH]ccc2n1 [ID-7] | ~1080 | ~1170 | ~2960 | 544 |  |  | 
18 | CC(C)S(=O)(=O)c1ccccc1Nc1nc(Nc2cnn(C3CCN(C)CC3)c2)nc2cc[nH]c12 [ID-8] | 5680 | > 10000 | > 10000 | 5170 |  |  | 
19 | COC(=O)c1ccccc1Nc1nc(Nc2ccc(N3CCN(C)CC3)cc2OC)nc2cc[nH]c12 [IG-1] | 1160 | 1800 | 2340 | 1470 |  |  | 
20 | COC(=O)c1ccccc1Nc1nc(Nc2ccc(N3CCC(N4CCN(C)CC4)CC3)cc2OC)nc2cc[nH]c12 [IG-2] | 1190 | 1430 | 1800 | 1200 |  |  | 
21 | COC(=O)c1ccccc1Nc1nc(Nc2ccc(N3CCC(O)CC3)cc2)nc2cc[nH]c12 [IG-3] | 5040 | 6930 | 6870 | 2720 |  |  | 
22 | COC(=O)c1ccccc1Nc1nc(Nc2ccc(S(N)(=O)=O)cc2)nc2cc[nH]c12 [IG-4] | 4940 | 6100 | 8510 | 5110 |  |  | 
23 | COC(=O)c1ccccc1Nc1nc(Nc2ccc(N3CCOCC3)cc2)nc2cc[nH]c12 [IG-5] | > 10000 | > 10000 | > 10000 | 7800 |  |  | 
24 | COC(=O)c1ccccc1Nc1nc(Nc2ccc(N3CCN(C)CC3)cc2)nc2cc[nH]c12 [IG-6] | 1520 | 1740 | ~3140 | 1370 |  |  | 
25 | COC(=O)c1ccccc1Nc1nc(Nc2ccc(N3CCC(N4CCCC4)CC3)cc2OC)nc2cc[nH]c12 [IG-7] | 409 | 1210 | ~994 | 286 |  |  | 
26 | COC(=O)c1ccccc1Nc1nc(Nc2ccc(OCc3ccccn3)cc2)nc2cc[nH]c12 [IG-8] | 1530 | 1670 | 3860 | 1830 |  |  | 
27 | Cn1ccc2nc(Nc3ccc(S(N)(=O)=O)cc3)nc(NCc3ccccc3S(C)(=O)=O)c21 [IIK-4] |  |  |  |  | > 10000 | > 10000 | > 10000
28 | CN1CCN(c2ccc(Nc3nc(NCc4ccccc4S(C)(=O)=O)c4[nH]ccc4n3)cc2)CC1 [IN-5] | > 10000 | > 10000 |  | > 10000 |  |  | 
